Results as given in PubChem BioAssay AID1919007 (Molecular Pharmacology Branch, DTP, NCI, 2023).
pIC50: −log10 of the molar value.

System: A498 complex spheroids with HUVEC/MSC, growth
Test: Anticancer human tumor A498 cell line growth inhibition [AhR];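 note: seven day exposure starting three days after spheroid seeding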;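 for viability, T/C: luminescence signal used as a surrogate for viable cells; luminescence viability scaled so 100% equals DMSO vehicle wells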
Details: for pIC50: curve of first compound; for viability, T/C: stronger effect = lower value
In short: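 Agents were dosed in half-log steps down from roughly clinical Cmax, or from 10 microM where Cmax was unknown, alone and with AhR antagonists. Read-out: percent test/control growth of tumor spheroids containing HUVEC and MSC stromal cells.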

[1] = second compound 0.1 µM, first compound 0.0316 µM
[2] = second compound 0.1 µM, first compound 0.1 µM
[3] = second compound 0.1 µM, first compound 0.316 µM
[4] = second compound 0.1 µM, first compound 1 µM
[5] = second compound 0.1 µM, first compound 3.16 µM
[6] = second compound 0.1 µM, first compound 10 µM
[7] = second compound 0.316 µM, first compound 0.0316 µM
[8] = second compound 0.316 µM, first compound 0.1 µM
[9] = second compound 0.316 µM, first compound 0.316 µM
[10] = second compound 0.316 µM, first compound 1 µM
[11] = second compound 0.316 µM, first compound 3.16 µM
[12] = second compound 0.316 µM, first compound 10 µM
[13] = second compound 1 µM, first compound 0.0316 µM
[14] = second compound 1 µM, first compound 0.1 µM
[15] = second compound 1 µM, first compound 0.316 µM
[16] = second compound 1 µM, first compound 1 µM
[17] = second compound 1 µM, first compound 3.16 µM
[18] = second compound 1 µM, first compound 10 µM
[19] = second compound 3.16 µM, first compound 0.0316 µM
[20] = second compound 3.16 µM, first compound 0.1 µM
[21] = second compound 3.16 µM, first compound 0.316 µM
[22] = second compound 3.16 µM, first compound 1 µM
[23] = second compound 3.16 µM, first compound 3.16 µM
[24] = second compound 3.16 µM, first compound 10 µM
[25] = second compound 10 µM, first compound 0.0316 µM
[26] = second compound 10 µM, first compound 0.1 µM
[27] = second compound 10 µM, first compound 0.316 µM
[28] = second compound 10 µM, first compound 1 µM
[29] = second compound 10 µM, first compound 3.16 µM
[30] = second compound 10 µM, first compound 10 µM
[31] = second compound 0.1 µM, first compound 0.00949 µM
[32] = second compound 0.1 µM, first compound 0.03 µM
[33] = second compound 0.1 µM, first compound 0.0949 µM
[34] = second compound 0.1 µM, first compound 0.3 µM
[35] = second compound 0.316 µM, first compound 0.00949 µM
[36] = second compound 0.316 µM, first compound 0.03 µM
[37] = second compound 0.316 µM, first compound 0.0949 µM
[38] = second compound 0.316 µM, first compound 0.3 µM
[39] = second compound 1 µM, first compound 0.00949 µM
[40] = second compound 1 µM, first compound 0.03 µM
[41] = second compound 1 µM, first compound 0.0949 µM
[42] = second compound 1 µM, first compound 0.3 µM
[43] = second compound 3.16 µM, first compound 0.00949 µM
[44] = second compound 3.16 µM, first compound 0.03 µM
[45] = second compound 3.16 µM, first compound 0.0949 µM
[46] = second compound 3.16 µM, first compound 0.3 µM
[47] = second compound 10 µM, first compound 0.00949 µM
[48] = second compound 10 µM, first compound 0.03 µM
[49] = second compound 10 µM, first compound 0.0949 µM
[50] = second compound 10 µM, first compound 0.3 µM

`CC1(C)CCC(CN2CCN(c3ccc(C(=O)NS(=O)(=O)c4ccc(NCC5CCOCC5)c([N+](=O)[O-])c4)c(Oc4cnc5[nH]ccc5c4)c3)CC2)=C(c2ccc(Cl)cc2)C1` + Cc1ccccc1N=Nc1ccc(NC(=O)c2ccnn2C)c(C)c1 was tested, and the pIC50 (second compound 0.1 µM) was 5.07, the pIC50 (second compound 0.316 µM) was less than 5.00 and the pIC50 (second compound 1 µM) was 5.06. The pIC50 (second compound 3.16 µM) was less than 5.00, the pIC50 (second compound 10 µM) was 5.06 and the viability, T/C [1] was 88.7%. The viability, T/C [2] was 89.5%, the viability, T/C [3] was 87.9% and the viability, T/C [4] was 86.6%. It also gave a viability, T/C [5] of 76.8%, a viability, T/C [6] of 45.8% and a viability, T/C [7] of 99.9%. For the same molecule, the viability, T/C [8] was 98.2%, the viability, T/C [9] was 95.6% and the viability, T/C [10] was 87.5%. It also gave a viability, T/C [11] of 75.9%, a viability, T/C [12] of 52.3% and a viability, T/C [13] of 84.7%. The viability, T/C [14] was 87.4%, the viability, T/C [15] was 83.6% and the viability, T/C [16] was 72%. The viability, T/C [17] was 66.5%, the viability, T/C [18] was 47.8% and the viability, T/C [19] was 83%. The viability, T/C [20] was 86.7%, the viability, T/C [21] was 91.3% and the viability, T/C [22] was 76.9%. The viability, T/C [23] was 66.7%, the viability, T/C [24] was 50.5% and the viability, T/C [25] was 88.3%. For the same molecule, the viability, T/C [26] was 86.7%, the viability, T/C [27] was 84.6% and the viability, T/C [28] was 77.6%. The viability, T/C [29] was 78.5% and the viability, T/C [30] was 46%.

`CC1COCCN1c1cc(C2(S(C)(=N)=O)CC2)nc(-c2ccnc3[nH]ccc23)n1` (stereo not given) + Cc1ccccc1N=Nc1ccc(NC(=O)c2ccnn2C)c(C)c1 showed a pIC50 (second compound 0.1 µM) of 5.60, a pIC50 (second compound 0.316 µM) of 5.68 and a pIC50 (second compound 1 µM) of 5.74. The pIC50 (second compound 3.16 µM) was 5.73, the pIC50 (second compound 10 µM) was 5.69 and the viability, T/C [1] was 84.6%. It also gave a viability, T/C [2] of 85.4%, a viability, T/C [3] of 84.3% and a viability, T/C [4] of 66%. The viability, T/C [5] was 46.6%, the viability, T/C [6] was 23.2% and the viability, T/C [7] was 101%. The viability, T/C [8] was 90.5%, the viability, T/C [9] was 88.3% and the viability, T/C [10] was 68.1%. It also gave a viability, T/C [11] of 38.9%, a viability, T/C [12] of 25.7% and a viability, T/C [13] of 81.7%. For the same molecule, the viability, T/C [14] was 78.2%, the viability, T/C [15] was 82.2% and the viability, T/C [16] was 61.7%. It also gave a viability, T/C [17] of 38.2%, a viability, T/C [18] of 21.2% and a viability, T/C [19] of 83%. For the same molecule, the viability, T/C [20] was 82.4%, the viability, T/C [21] was 77.2% and the viability, T/C [22] was 64%. It also gave a viability, T/C [23] of 38.5%, a viability, T/C [24] of 24.2% and a viability, T/C [25] of 82.6%. For the same molecule, the viability, T/C [26] was 81.5%, the viability, T/C [27] was 78.7% and the viability, T/C [28] was 67.8%. For the same molecule, the viability, T/C [29] was 39% and the viability, T/C [30] was 25%.

Work on `CCN(c1cc(-c2ccc(CN3CCOCC3)cc2)cc(C(=O)NCc2c(C)cc(C)[nH]c2=O)c1C)C1CCOCC1` + Cc1ccccc1N=Nc1ccc(NC(=O)c2ccnn2C)c(C)c1 yielded a pIC50 (second compound 0.1 µM) of less than 5.52, a pIC50 (second compound 0.316 µM) of less than 5.52 and a pIC50 (second compound 1 µM) of less than 5.52. For the same molecule, the pIC50 (second compound 3.16 µM) was less than 5.52, the pIC50 (second compound 10 µM) was less than 5.52 and the viability, T/C [31] was 92.6%. For the same molecule, the viability, T/C [32] was 96.8%, the viability, T/C [33] was 94.3% and the viability, T/C [34] was 89.7%. For the same molecule, the viability, T/C (second compound 0.1 µM, first compound 0.949 µM) was 93.1%, the viability, T/C (second compound 0.1 µM, first compound 3 µM) was 98.4% and the viability, T/C [35] was 95.4%. The viability, T/C [36] was 98.9%, the viability, T/C [37] was 98.2% and the viability, T/C [38] was 96.8%. For the same molecule, the viability, T/C (second compound 0.316 µM, first compound 0.949 µM) was 96.4%, the viability, T/C (second compound 0.316 µM, first compound 3 µM) was 104% and the viability, T/C [39] was 91.3%. For the same molecule, the viability, T/C [40] was 92.9%, the viability, T/C [41] was 90.8% and the viability, T/C [42] was 91.2%. For the same molecule, the viability, T/C (second compound 1 µM, first compound 0.949 µM) was 85.2%, the viability, T/C (second compound 1 µM, first compound 3 µM) was 91.6% and the viability, T/C [43] was 86.7%. The viability, T/C [44] was 92.6%, the viability, T/C [45] was 91% and the viability, T/C [46] was 89.2%. For the same molecule, the viability, T/C (second compound 3.16 µM, first compound 0.949 µM) was 87.7%, the viability, T/C (second compound 3.16 µM, first compound 3 µM) was 86.3% and the viability, T/C [47] was 95.6%. For the same molecule, the viability, T/C [48] was 91%, the viability, T/C [49] was 95% and the viability, T/C [50] was 89.5%. The viability, T/C (second compound 10 µM, first compound 0.949 µM) was 92.5% and the viability, T/C (second compound 10 µM, first compound 3 µM) was 96.3%.

`Nc1ncn(C2CC(O)C(CO)S2)c(=O)n1` (stereo not given) + Cc1ccccc1N=Nc1ccc(NC(=O)c2ccnn2C)c(C)c1 gave a pIC50 (second compound 0.1 µM) of less than 6.52, a pIC50 (second compound 0.316 µM) of less than 6.52 and a pIC50 (second compound 1 µM) of less than 6.52. The pIC50 (second compound 3.16 µM) was less than 6.52, the pIC50 (second compound 10 µM) was less than 6.52 and the viability, T/C (second compound 0.1 µM, first compound 0.000949 µM) was 93.5%. It also gave a viability, T/C (second compound 0.1 µM, first compound 0.003 µM) of 97.4%, a viability, T/C [31] of 101% and a viability, T/C [32] of 89.8%. For the same molecule, the viability, T/C [33] was 89.9%, the viability, T/C [34] was 76.8% and the viability, T/C (second compound 0.316 µM, first compound 0.000949 µM) was 98.2%. For the same molecule, the viability, T/C (second compound 0.316 µM, first compound 0.003 µM) was 101%, the viability, T/C [35] was 93.3% and the viability, T/C [36] was 91.6%. The viability, T/C [37] was 88.5%, the viability, T/C [38] was 78.1% and the viability, T/C (second compound 1 µM, first compound 0.000949 µM) was 92%. It also gave a viability, T/C (second compound 1 µM, first compound 0.003 µM) of 93.1%, a viability, T/C [39] of 91.7% and a viability, T/C [40] of 89.2%. It also gave a viability, T/C [41] of 79.6%, a viability, T/C [42] of 80.9% and a viability, T/C (second compound 3.16 µM, first compound 0.000949 µM) of 89.8%. It also gave a viability, T/C (second compound 3.16 µM, first compound 0.003 µM) of 94.2%, a viability, T/C [43] of 97.4% and a viability, T/C [44] of 79.3%. The viability, T/C [45] was 77.5%, the viability, T/C [46] was 71.3% and the viability, T/C (second compound 10 µM, first compound 0.000949 µM) was 88.2%. The viability, T/C (second compound 10 µM, first compound 0.003 µM) was 89%, the viability, T/C [47] was 87.8% and the viability, T/C [48] was 89.1%. For the same molecule, the viability, T/C [49] was 80.8% and the viability, T/C [50] was 75.7%.
